Data: patent US20260130395A1, “Water Dispersible Botanical Compositions” (Aquila Black Limited, priority 2021, published 2026)

Legend:
[1] = Stability of cannabinoid compounds and Vitamin E components in Beverage 1 (AB White) by LCMSMS; type: physicochemical
[2] = Stability of cannabinoid entourage and Vitamin E components of the powder concentrate by LCMSMS; type: physicochemical; details: powder stored at 21-25° C.
Method: At each time period, 0.05 g of powder was dissolved in 10 ml-15 of ethanol, diluted to fall within the analytical range, and injected into the LCMSMS for analysis.

## Cc1c(C)c2c(c(C)c1OC(=O)CCC(=O)O)CC[C@@](C)(CCC[C@H](C)CCC[C@H](C)CCCC(C)C)O2 [α-Tocopheryl succinate]
[1]; stored at 8° C., 0 days
  Stability of Vitamin Es in AB White: 12.8 µg/mL
[1]; stored at 8° C., 1 days
  Stability of Vitamin Es in AB White: 11.83 µg/mL
[1]; stored at 8° C., 2 days
  Stability of Vitamin Es in AB White: 12.31 µg/mL
[1]; stored at 8° C., 3 days
  Stability of Vitamin Es in AB White: 11.94 µg/mL
[1]; stored at 8° C., 5 days
  Stability of Vitamin Es in AB White: 11.44 µg/mL
[1]; stored at 8° C., 8 days
  Stability of Vitamin Es in AB White: 11.48 µg/mL
[1]; stored at 8° C., 9 days
  Stability of Vitamin Es in AB White: 12.08 µg/mL
[1]; stored at 8° C., 10 days
  Stability of Vitamin Es in AB White: 12.28 µg/mL
[1]; stored at 8° C., 11 days
  Stability of Vitamin Es in AB White: 11.94 µg/mL
[1]; stored at 8° C., 12 days
  Stability of Vitamin Es in AB White: 12.41 µg/mL
[1]; stored at 8° C., 15 days
  Stability of Vitamin Es in AB White: 11.56 µg/mL
[1]; stored at 8° C., 16 days
  Stability of Vitamin Es in AB White: 12.09 µg/mL
[1]; stored at 8° C., 17 days
  Stability of Vitamin Es in AB White: 11.60 µg/mL
[1]; stored at 8° C., 18 days
  Stability of Vitamin Es in AB White: 11.59 µg/mL
[1]; stored at 8° C., 19 days
  Stability of Vitamin Es in AB White: 11.89 µg/mL
[1]; stored at 8° C., 22 days
  Stability of Vitamin Es in AB White: 11.81 µg/mL
[1]; stored at 8° C., 23 days
  Stability of Vitamin Es in AB White: 11.46 µg/mL
[1]; stored at 8° C., 24 days
  Stability of Vitamin Es in AB White: 11.75 µg/mL
[1]; stored at 8° C., 25 days
  Stability of Vitamin Es in AB White: 12.41 µg/mL
[1]; stored at 8° C., 26 days
  Stability of Vitamin Es in AB White: 11.64 µg/mL
[1]; stored at 8° C., 29 days
  Stability of Vitamin Es in AB White: 12.43 µg/mL
[1]; stored at 8° C., 30 days
  Stability of Vitamin Es in AB White: 11.78 µg/mL
[1]; stored at 8° C., 60 days
  Stability of Vitamin Es in AB White: 12.18 µg/mL
[1]; stored at 8° C., 90 days
  Stability of Vitamin Es in AB White: 11.33 µg/mL
[1]; stored at 8° C., 120 days
  Stability of Vitamin Es in AB White: 11.31 µg/mL
[1]; stored at 8° C., 150 days
  Stability of Vitamin Es in AB White: 12.29 µg/mL
[1]; stored at 8° C., 180 days
  Stability of Vitamin Es in AB White: 11.74 µg/mL
[1]; stored at 8° C., 210 days
  Stability of Vitamin Es in AB White: 11.40 µg/mL
[1]; stored at 8° C., 240 days
  Stability of Vitamin Es in AB White: 11.70 µg/mL
[1]; stored at 8° C., 270 days
  Stability of Vitamin Es in AB White: 11.24 µg/mL
[1]; stored at 8° C., 300 days
  Stability of Vitamin Es in AB White: 11.53 µg/mL
[1]; stored at 8° C., 330 days
  Stability of Vitamin Es in AB White: 11.81 µg/mL
[1]; stored at 8° C., 360 days
  Stability of Vitamin Es in AB White: 11.10 µg/mL
[1]; stored at 8° C., 390 days
  Stability of Vitamin Es in AB White: 11.34 µg/mL
[1]; stored at 8° C., 420 days
  Stability of Vitamin Es in AB White: 11.30 µg/mL
[1]; stored at 8° C., 450 days
  Stability of Vitamin Es in AB White: 11.28 µg/mL
[1]; stored at 8° C., 480 days
  Stability of Vitamin Es in AB White: 10.58 µg/mL
[1]; stored at 8° C., 510 days
  Stability of Vitamin Es in AB White: 10.83 µg/mL
[1]; stored at 8° C., 540 days
  Stability of Vitamin Es in AB White: 10.58 µg/mL
[1]; stored at 8° C., 570 days
  Stability of Vitamin Es in AB White: 10.93 µg/mL
[1]; stored at 21-25° C., 0 days
  Stability of Vitamin Es in AB White: 12.8 µg/mL
[1]; stored at 21-25° C., 1 days
  Stability of Vitamin Es in AB White: 12.6 µg/mL
[1]; stored at 21-25° C., 2 days
  Stability of Vitamin Es in AB White: 12.3 µg/mL
[1]; stored at 21-25° C., 3 days
  Stability of Vitamin Es in AB White: 12.0 µg/mL
[1]; stored at 21-25° C., 5 days
  Stability of Vitamin Es in AB White: 12.0 µg/mL
[1]; stored at 21-25° C., 8 days
  Stability of Vitamin Es in AB White: 11.9 µg/mL
[1]; stored at 21-25° C., 9 days
  Stability of Vitamin Es in AB White: 12.7 µg/mL
[1]; stored at 21-25° C., 10 days
  Stability of Vitamin Es in AB White: 12.5 µg/mL
[1]; stored at 21-25° C., 11 days
  Stability of Vitamin Es in AB White: 11.8 µg/mL
[1]; stored at 21-25° C., 12 days
  Stability of Vitamin Es in AB White: 11.6 µg/mL
[1]; stored at 21-25° C., 15 days
  Stability of Vitamin Es in AB White: 12.6 µg/mL
[1]; stored at 21-25° C., 16 days
  Stability of Vitamin Es in AB White: 11.7 µg/mL
[1]; stored at 21-25° C., 17 days
  Stability of Vitamin Es in AB White: 13.0 µg/mL
[1]; stored at 21-25° C., 18 days
  Stability of Vitamin Es in AB White: 12.9 µg/mL
[1]; stored at 21-25° C., 19 days
  Stability of Vitamin Es in AB White: 12.3 µg/mL
[1]; stored at 21-25° C., 22 days
  Stability of Vitamin Es in AB White: 12.2 µg/mL
[1]; stored at 21-25° C., 23 days
  Stability of Vitamin Es in AB White: 12.3 µg/mL
[1]; stored at 21-25° C., 24 days
  Stability of Vitamin Es in AB White: 12.5 µg/mL
[1]; stored at 21-25° C., 25 days
  Stability of Vitamin Es in AB White: 12.4 µg/mL
[1]; stored at 21-25° C., 26 days
  Stability of Vitamin Es in AB White: 12.2 µg/mL
[1]; stored at 21-25° C., 29 days
  Stability of Vitamin Es in AB White: 12.4 µg/mL
[1]; stored at 21-25° C., 30 days
  Stability of Vitamin Es in AB White: 12.0 µg/mL
[1]; stored at 21-25° C., 60 days
  Stability of Vitamin Es in AB White: 11.9 µg/mL
[1]; stored at 21-25° C., 90 days
  Stability of Vitamin Es in AB White: 11.9 µg/mL
[1]; stored at 21-25° C., 120 days
  Stability of Vitamin Es in AB White: 12.1 µg/mL
[1]; stored at 21-25° C., 150 days
  Stability of Vitamin Es in AB White: 12.7 µg/mL
[1]; stored at 21-25° C., 180 days
  Stability of Vitamin Es in AB White: 11.6 µg/mL
[1]; stored at 21-25° C., 210 days
  Stability of Vitamin Es in AB White: 11.5 µg/mL
[1]; stored at 21-25° C., 240 days
  Stability of Vitamin Es in AB White: 11.5 µg/mL
[1]; stored at 21-25° C., 270 days
  Stability of Vitamin Es in AB White: 11.2 µg/mL
[1]; stored at 21-25° C., 300 days
  Stability of Vitamin Es in AB White: 11.4 µg/mL
[1]; stored at 21-25° C., 330 days
  Stability of Vitamin Es in AB White: 11.3 µg/mL
[1]; stored at 21-25° C., 360 days
  Stability of Vitamin Es in AB White: 11.5 µg/mL
[1]; stored at 21-25° C., 390 days
  Stability of Vitamin Es in AB White: 11.3 µg/mL
[1]; stored at 21-25° C., 420 days
  Stability of Vitamin Es in AB White: 11.6 µg/mL
[1]; stored at 21-25° C., 450 days
  Stability of Vitamin Es in AB White: 11.5 µg/mL
[1]; stored at 21-25° C., 480 days
  Stability of Vitamin Es in AB White: 10.8 µg/mL
[1]; stored at 21-25° C., 510 days
  Stability of Vitamin Es in AB White: 10.9 µg/mL
[1]; stored at 21-25° C., 540 days
  Stability of Vitamin Es in AB White: 10.9 µg/mL
[1]; stored at 21-25° C., 570 days
  Stability of Vitamin Es in AB White: 10.6 µg/mL
[2]; 0 days
  Stability of Vitamin Es in Powder Concentrate: 1.82 mg/g powder
[2]; 1 days
  Stability of Vitamin Es in Powder Concentrate: 1.81 mg/g powder
[2]; 2 days
  Stability of Vitamin Es in Powder Concentrate: 1.81 mg/g powder
[2]; 3 days
  Stability of Vitamin Es in Powder Concentrate: 1.81 mg/g powder
[2]; 5 days
  Stability of Vitamin Es in Powder Concentrate: 1.83 mg/g powder
[2]; 8 days
  Stability of Vitamin Es in Powder Concentrate: 1.90 mg/g powder
[2]; 9 days
  Stability of Vitamin Es in Powder Concentrate: 1.89 mg/g powder
[2]; 10 days
  Stability of Vitamin Es in Powder Concentrate: 1.87 mg/g powder
[2]; 11 days
  Stability of Vitamin Es in Powder Concentrate: 1.89 mg/g powder
[2]; 12 days
  Stability of Vitamin Es in Powder Concentrate: 1.87 mg/g powder
[2]; 15 days
  Stability of Vitamin Es in Powder Concentrate: 1.87 mg/g powder
[2]; 16 days
  Stability of Vitamin Es in Powder Concentrate: 1.83 mg/g powder
[2]; 17 days
  Stability of Vitamin Es in Powder Concentrate: 1.88 mg/g powder
[2]; 18 days
  Stability of Vitamin Es in Powder Concentrate: 1.77 mg/g powder
[2]; 19 days
  Stability of Vitamin Es in Powder Concentrate: 1.85 mg/g powder
[2]; 22 days
  Stability of Vitamin Es in Powder Concentrate: 1.78 mg/g powder
[2]; 23 days
  Stability of Vitamin Es in Powder Concentrate: 1.80 mg/g powder
[2]; 24 days
  Stability of Vitamin Es in Powder Concentrate: 1.90 mg/g powder
[2]; 25 days
  Stability of Vitamin Es in Powder Concentrate: 1.90 mg/g powder
[2]; 26 days
  Stability of Vitamin Es in Powder Concentrate: 1.76 mg/g powder
[2]; 29 days
  Stability of Vitamin Es in Powder Concentrate: 1.87 mg/g powder
[2]; 30 days
  Stability of Vitamin Es in Powder Concentrate: 1.80 mg/g powder
[2]; 60 days
  Stability of Vitamin Es in Powder Concentrate: 1.77 mg/g powder
[2]; 90 days
  Stability of Vitamin Es in Powder Concentrate: 1.83 mg/g powder
[2]; 120 days
  Stability of Vitamin Es in Powder Concentrate: 1.83 mg/g powder
[2]; 150 days
  Stability of Vitamin Es in Powder Concentrate: 1.89 mg/g powder
[2]; 180 days
  Stability of Vitamin Es in Powder Concentrate: 1.77 mg/g powder
[2]; 210 days
  Stability of Vitamin Es in Powder Concentrate: 1.80 mg/g powder
[2]; 240 days
  Stability of Vitamin Es in Powder Concentrate: 1.84 mg/g powder
[2]; 270 days
  Stability of Vitamin Es in Powder Concentrate: 1.87 mg/g powder
[2]; 300 days
  Stability of Vitamin Es in Powder Concentrate: 1.84 mg/g powder
[2]; 330 days
  Stability of Vitamin Es in Powder Concentrate: 1.83 mg/g powder
[2]; 360 days
  Stability of Vitamin Es in Powder Concentrate: 1.79 mg/g powder
[2]; 390 days
  Stability of Vitamin Es in Powder Concentrate: 1.87 mg/g powder
[2]; 420 days
  Stability of Vitamin Es in Powder Concentrate: 1.82 mg/g powder
[2]; 450 days
  Stability of Vitamin Es in Powder Concentrate: 1.80 mg/g powder
[2]; 480 days
  Stability of Vitamin Es in Powder Concentrate: 1.76 mg/g powder
[2]; 510 days
  Stability of Vitamin Es in Powder Concentrate: 1.76 mg/g powder
[2]; 540 days
  Stability of Vitamin Es in Powder Concentrate: 1.80 mg/g powder
[2]; 570 days
  Stability of Vitamin Es in Powder Concentrate: 1.77 mg/g powder
